Assays:
U87-MG cells = experiment: Confocal imaging of intracellular thiols, U87-MG; type: cell-based, human; details: BSO increased from 25 to 100 μM
Description: To explore the capability of using TPE-SS-D5-cRGD as a specific bioprobe for monitoring intracellular thiol levels in cancer cells, the probe is incubated with U87-MG human glioblastoma and MCF-7 breast cancer cell lines. U87-MG cells with overexpressed integrin αvβ3 on cellular membrane was chosen as integrin-positive cancer cell, while breast cancer cell MCF-7 with a low level of integrin αvβ3 expression was used as the negative control. […] It should be noted that the probe could also be used for live cell imaging. To provide further evidence for thiol-induced disulfide bond cleavage as the trigger of fluorescence turn-on, the U87-MG cells were also pretreated with buthionine sulfoximine (BSO) before incubation with TPE-SS-D5-cRGD. BSO is an inhibitor of g-glutamylcysteine synthetase which can inhibit the cells from synthesizing GSH. The fluorescence of TPE-SS-D5-cRGD treated U87-MG cells decreases as the concentration of BSO increases from 25 to 100 μM.

[1] = In vitro cytotoxicity studies; type: cell-based

Row | Compound | fluorescence of TPE-SS-D5-cRGD treated cells after BSO pretreatment (U87-MG cells) | in vitro cytotoxicity [1]
1 | CCCCS(=N)(=O)CCC(N)C(=O)O (centres unmarked) [BSO, buthionine sulfoximine] | decreases | 
2 | N=C(N)NCCC[C@@H]1NC(=O)[C@H](CCCCNC(=O)[C@H](CC(=O)O)NC(=O)[C@H](CC(=O)O)NC(=O)[C@H](CC(=O)O)NC(=O)[C@H](CC(=O)O)NC(=O)[C@H](CC(=O)O)NC(=O)CCSSCCC(=O)NCc2ccc(C(=C(c3ccccc3)c3ccccc3)c3ccccc3)cc2)NC(=O)[C@@H](Cc2ccccc2)NC(=O)[C@H](CC(=O)O)NC(=O)CNC1=O [TPE-SS-D5-cRGD] |  | biocompatible

From patent US20160356723A1, “Light-Up Probes Based On Fluorogens With Aggregation Induced Emission Characteristics For Cellular Imaging And Drug Screening” (NATIONAL UNIVERSITY OF SINGAPORE, priority 2014, published 2016)
